Measured values from patent US6335159B1 (The Burnham Institute, priority 1988, dated 2002).

Tests used:
Assay type in all cases: cell-based
[1] = tested on: endogenous F9 cell RAR; assay: CAT assay: reporter plasmid only transfected into F9 cells (endogenous RAR); settings: for induction of CAT activity: G17-2 construct alone
Source text: Two different TREs, one the natural myosin heavy chain (MHC) promoter TRE, Izumo, S., et al., Nature, 334, 539 (1988), and the other a synthetic TRE—G17-2—derived from the rat growth hormone promoter, Glass, C. K., et al., Cell, 54, 313-323 (1988), were chosen, both references are incorporated herein by reference. The estrogen responsive element (ERE) used here is derived from the vitellogenin gene, Klein-Hitpass, L., et al., Cell 46, 1053-1061 (1986). As a convenient assay system a cotransfection CAT assay (chloramphenicol transacetylase) was chosen. When. […] Upon induction, MHC and G17-2-TRE constructs yield very similar levels of CAT activity. However, the MHC-TRE-CAT gene is highly constitutive (high basal level activity) whereas the G17-2 construct functions as an ideal RA inducible gene in that we observe a low basal activity and a more than 30 fold induction of CAT activity by RA (FIG. 6a and b). Similar levels of induction were obtained with TRα. F9 cells have been established as a cellular model for RA dependent differentiation and to contain RAR transcripts. Whether the endogenous F9 RAR can also activate the TRE-CAT genes, by transfecting the […] into F9 cells alone was investigated. […] The high basal level observed with the MHC construct prevents observation of a clear induction effect by the endogenous RAR. […]
F9 cells were cotransfected with 5 μg of the expression vectors PECE-RARε or PECE-TRα and 20 μg of the reporter plasmids G17-2 CAT or MHC-CAT. […] Fold activation is expressed as the ratio of relative CAT activity after hormone induction to relative CAT activity without hormone induction. […]
2×10^6 F9 cells were cultured as monolayer on gelatin-coated dishes in alpha-MEM (GIBCO, Santa Clara, Calif.), supplemented by 20% fetal calf serum (FCS), glutamine: and nucleosides as described in Grover, A., et al., J. Cell Biol. 96, […] (1983) which is incorporated herein by reference. […] For accurate determinations of chloramphenicol acetylation, the separated reaction products were cut out from silica plates and quantified in a scintillation counter. […]

[2] = tested on: TR and RAR (RARε plus TRα or TRβ); assay: Cotransfection CAT assay: TR and RARε together with TRE-CAT gene (G17-2 CAT) in F9 and CV-1 cells; settings: only T3 added, TR and RAR cotransfected
Method: One possible implication of this finding is that certain genes should be inducible by either hormone (T3) or vitamin (RA) in cells containing both receptors. To zest this hypothesis and to investigate possible positive and/or negative interactions of TR and RAR, both receptors were cotransfected into the same cells together with a TRE-CAT gene. […] Approximately 70% of the maximal activity is observed when only T3 is added. […] In the absence of T3, TR prevents activation of TREs by RARs, while in the presence of T3, TR activates and also allows positive cooperativity with RAR. The dominating regulatory effect can be carried out by both TRα and TRβ on both the RARε (FIG. 9) and the F9 endogenous RAR. Significant repression of RARε activity in F9 cells is observed between RARε: TRα ratios of 1:1 to 4:1.
As shown in FIG. 9(a), 5 μg of PECE-RARε plus 5 μg of PECE-TRα were cotransfected together with 20 μg of G17-2 CAT into F9 cells. As a control, each receptor was also cotransfected with G17-2 CAT individually. Hormones were added as indicated. As shown in FIG. 9(b), 2.5 μg of PECE-TRβ plus 2.5 μg of PECE-RARε were cotransfected with 20 μg of G17-2 CAT into CV-1 cells. As a control, PECE-RARε was also cotransfected with G17-2 individually. Hormones were added as indicated. CAT activity was assayed as described in Example VI.

[3] = biological target: T1, RAER chimaeric protein (RARε with hER DNA-binding domain) (Homo sapiens, UniProt P10826, DEL77-136/INS76TNDKGSMAMESAKETRYCAVCNDYASGYHYGVWSCEGCKAFFKRSIQGHNDYMCPATNQCTIDKNRRKSCQAC); assay: Co-transfection CAT assay: RAER chimaeric receptor plus ERE-CAT reporter gene in HeLa cells; settings: only at high concentrations (3×10^−6 M)
T1 construct: a 304 bp 5′ untranslated region, the complete open reading frame, and a 55 bp 3′ untranslated region; expressed in transfected cells; host or cells: HeLa cells, PECE-RAER expression vector
T1 sequence (P10826 with tags, fused parts or gaps isoform P10826-2): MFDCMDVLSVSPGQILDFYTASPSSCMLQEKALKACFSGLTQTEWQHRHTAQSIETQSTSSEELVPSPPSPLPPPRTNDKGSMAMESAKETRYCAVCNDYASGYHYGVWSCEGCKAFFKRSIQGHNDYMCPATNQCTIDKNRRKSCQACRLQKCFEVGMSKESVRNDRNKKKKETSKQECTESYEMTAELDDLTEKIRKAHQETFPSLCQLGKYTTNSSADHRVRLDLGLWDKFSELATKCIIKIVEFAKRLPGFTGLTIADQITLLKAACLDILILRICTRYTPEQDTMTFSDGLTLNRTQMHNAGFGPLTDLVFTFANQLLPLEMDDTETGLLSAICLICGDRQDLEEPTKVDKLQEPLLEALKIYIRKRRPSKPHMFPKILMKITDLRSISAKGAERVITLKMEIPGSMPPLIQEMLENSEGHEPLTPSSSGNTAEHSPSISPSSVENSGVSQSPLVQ
Method: The hybrid receptor was then transfected into susceptible tissue-culture cells together with a reporter gene containing the relevant HRE. The effect of various potential activators of the novel receptor was measured from cells transiently transfected with both genes and grown in the presence and absence of the various ligands.
As a control, cells were treated with calcium phosphate or were transfected with the constitutive pSV2CAT vector. As further controls, cells were also transfected with ERE-CAT and ERE-CAT plus the oestrogen receptor (ER) expression vector pckR2ER and grown in the presence of Est.
After 5 hours, cells were shocked with 10% glycerol for 2 min. Eighteen hours after the start of transfection, steroid hormones or retinoids were added to the medium and cells were incubated for a further 24 hours before harvesting.

CC1=C(/C=C/C(C)=C/C=C/C(C)=C/C(=O)O)C(C)(C)CCC1 [retinoic acid]
induction of CAT activity ([1]; endogenous F9 RAR, in the presence of RA): 12 fold
RA concentration at which TRE dependent CAT activity can be induced ([1]; G17-2 construct, F9 RAR, RA tested between 3×10^−11 and 10^−6 M): ~0.1 nM

N[C@@H](Cc1cc(I)c(Oc2ccc(O)c(I)c2)c(I)c1)C(=O)O [T3]
induction of CAT activity ([1]; F9 cells, in the presence of T3): no induction
CAT activity, percent of the maximal activity [2]: Approximately 70%

CC1=C(/C=C/C(C)=C/C=C/C(C)=C/C=O)C(C)(C)CCC1 [retinal]
induction of CAT gene expression [3]: some inducing effect

CC1=C(/C=C/C(C)=C/C=C/C(C)=C/CO)C(C)(C)CCC1 [retinol]
induction of CAT gene expression [3]: some inducing effect
